What follows are compounds tested against T1, Protein O-GlcNAcase (Homo sapiens, UniProt O60502) (assay: OGA Enzyme Inhibition Biochemical Assay).
T1 sequence (O60502 whole entry): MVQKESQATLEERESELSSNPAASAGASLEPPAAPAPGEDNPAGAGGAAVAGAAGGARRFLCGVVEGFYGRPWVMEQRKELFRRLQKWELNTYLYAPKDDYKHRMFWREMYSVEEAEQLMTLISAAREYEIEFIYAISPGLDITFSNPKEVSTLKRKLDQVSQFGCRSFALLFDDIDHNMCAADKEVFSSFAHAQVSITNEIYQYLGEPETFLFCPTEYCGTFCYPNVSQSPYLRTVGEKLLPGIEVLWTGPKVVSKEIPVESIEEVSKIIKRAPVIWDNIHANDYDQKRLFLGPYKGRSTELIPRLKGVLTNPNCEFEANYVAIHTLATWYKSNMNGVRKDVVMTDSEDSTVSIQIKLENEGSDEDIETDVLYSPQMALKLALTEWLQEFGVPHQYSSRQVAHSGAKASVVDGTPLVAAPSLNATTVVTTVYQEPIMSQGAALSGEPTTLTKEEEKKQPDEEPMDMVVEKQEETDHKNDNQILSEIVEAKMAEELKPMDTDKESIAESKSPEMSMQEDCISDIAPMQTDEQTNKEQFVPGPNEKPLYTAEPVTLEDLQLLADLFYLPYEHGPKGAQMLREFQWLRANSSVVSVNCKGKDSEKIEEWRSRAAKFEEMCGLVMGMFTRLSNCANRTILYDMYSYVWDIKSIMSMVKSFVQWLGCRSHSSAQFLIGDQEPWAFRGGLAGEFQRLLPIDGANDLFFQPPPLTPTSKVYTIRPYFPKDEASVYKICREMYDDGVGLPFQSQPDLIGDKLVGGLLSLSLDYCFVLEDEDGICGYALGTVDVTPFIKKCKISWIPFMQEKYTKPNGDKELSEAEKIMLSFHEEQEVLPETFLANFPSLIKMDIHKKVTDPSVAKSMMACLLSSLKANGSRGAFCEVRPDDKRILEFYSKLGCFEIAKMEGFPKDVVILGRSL
Experimental: Recombinant full length human OGA enzyme was purchased from Origene. 4-MUGlcNAc substrate was purchased from Sigma. All other reagents were purchased from Sigma or Fisher. Assay buffer consists of the McIlvaine buffer system, pH 6.4 (0.2M Na2HPO4 mixed with 0.1M citric acid) and 0.01% BSA. […] Reactions were incubated for 90 minutes at room temperature and quenched with 40 μl of 3M glycine, pH 10 and read on a Perkin Elmer Envision plate reader (Ex: 355 nm/Em: 460 nm). Compounds were tested with a 10-point dose-response starting from 20 μM with a 4-fold dilution. Data was fit using GraphPad Prism using a 4-parameter fit with variable slope.
COc1nccc2c1COC21C[C@H](C)N(Cc2sc(NC(C)=O)nc2F)C1 (some centres undefined) [US12565504, Example 77] showed an IC50 of 4 nM. Compound COc1cc2c(cn1)[C@]1(C[C@H](C)N(Cc3sc(NC(C)=O)nc3F)C1)OC2 (single isomer, unassigned) [US12565504, Example 75-a] has an IC50 of 10 nM. CC(=O)Nc1nc(F)c(CN2CC3(C[C@@H]2C)OCc2ncccc23)s1 (some centres undefined) [US12565504, Example 79] was tested, and the IC50 was 10 nM. For COc1cc2c(cn1)[C@@]1(C[C@H](C)N(Cc3sc(NC(C)=O)nc3F)C1)OC2 (single isomer, unassigned) [US12565504, Example 75-b], the IC50 was 47 nM.
